The IC50 is the concentration needed to halve the response being measured.

Experimental findings from patent US11986471B2, “Compounds and methods of use” (Tango Therapeutics, Inc., priority 2018, dated 2024) are described below.

A value given as a limit tells only on which side of the number the result lay.

Experiment [1] has as its target T1, PRMT5 (Homo sapiens, UniProt O14744).
T1 construct: purchased Viva (custom protein)
Put plainly: PRMT5 IC50 assay in the presence of SAM as cofactor. In kind it is biochemical. In a few lines:
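Enzyme: human PRMT5. Conditions: plus SAM, plus MTA, or cofactor-free. Output: IC50 (μM); Ki via IC50/1.5 (SAM) or IC50/13.5 (MTA).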

Experiment [2] deals with T1, PRMT5. Put plainly: PRMT5 IC50 assay with no cofactor. It is filed as biochemical. A digest of the protocol: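 Values reflect IC50 (μM) on human PRMT5 under three cofactor states. Selectivity is derived as the quotient of SAM-state Ki over MTA-state Ki, with each Ki obtained from its IC50.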
Experiment [3] deals with T1, PRMT5. Nature of the experiment: PRMT5 IC50 assay in the presence of MTA as cofactor. It is filed as biochemical. The note with it: for IC50: PRMT5, MTA as cofactor; for SAM/MTA Ratio: ratio between the Ki in the presence of SAM and the Ki in the presence of MTA. In a few lines:
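IC50 against PRMT5 determined with SAM as cofactor, with no cofactor, and with MTA as cofactor. Ki derived as IC50/1.5 for the SAM assay and IC50/13.5 for the MTA assay; SAM Ki to MTA Ki ratio also reported.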

The test system of experiment [4] is HAP1 MTAP-intact. Put plainly: SDMA in-cell western assay, HAP1 MTAP-intact cell line. It is filed as cell-based. The note with it: Homo sapiens. In a few lines: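 Symmetric dimethylarginine (SDMA) levels were measured by in-cell western in an isogenic HAP1 pair, one expressing endogenous MTAP and one MTAP-null, and IC50 values were derived for each line. Compounds whose IC50 ratio between the lines is 3-fold or more are classed as MTAP-selective.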

For experiment [5], the system named is HAP1 MTAP-deleted. Nature of the experiment: SDMA in-cell western assay, HAP1 MTAP-deleted cell line. In kind it is cell-based. The note with it: for IC50: Homo sapiens, HAP1 MTAP-deleted cell line; for MTAP Intact/Deleted Ratio: IC50 ratio HAP1 MTAP-intact / HAP1 MTAP-deleted. A digest of the protocol: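 Symmetric dimethylarginine (SDMA) levels were measured by in-cell western in MTAP-null HAP1 cells, one half of an MTAP-isogenic pair whose partner line expresses endogenous MTAP. Compound potency is reported as IC50.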

T1 sequence (O14744 whole entry): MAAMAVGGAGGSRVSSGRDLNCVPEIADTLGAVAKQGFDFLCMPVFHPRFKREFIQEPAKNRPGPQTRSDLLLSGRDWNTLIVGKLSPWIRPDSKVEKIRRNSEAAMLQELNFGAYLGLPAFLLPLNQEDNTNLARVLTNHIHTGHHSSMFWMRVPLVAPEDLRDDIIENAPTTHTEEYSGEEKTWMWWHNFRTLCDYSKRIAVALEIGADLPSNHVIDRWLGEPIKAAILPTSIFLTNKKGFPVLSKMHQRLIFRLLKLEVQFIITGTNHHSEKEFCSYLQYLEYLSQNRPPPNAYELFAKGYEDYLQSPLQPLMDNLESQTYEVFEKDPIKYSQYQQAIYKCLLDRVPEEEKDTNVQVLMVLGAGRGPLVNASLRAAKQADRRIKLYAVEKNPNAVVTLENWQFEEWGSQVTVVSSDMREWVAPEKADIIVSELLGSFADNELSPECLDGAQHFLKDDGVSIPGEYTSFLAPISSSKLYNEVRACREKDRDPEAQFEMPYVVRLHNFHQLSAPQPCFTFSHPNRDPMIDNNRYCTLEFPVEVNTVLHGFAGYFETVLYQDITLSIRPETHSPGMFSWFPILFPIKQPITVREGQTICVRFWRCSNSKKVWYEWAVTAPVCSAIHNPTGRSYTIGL
T1 sequence (Q9BQA1 whole entry partner): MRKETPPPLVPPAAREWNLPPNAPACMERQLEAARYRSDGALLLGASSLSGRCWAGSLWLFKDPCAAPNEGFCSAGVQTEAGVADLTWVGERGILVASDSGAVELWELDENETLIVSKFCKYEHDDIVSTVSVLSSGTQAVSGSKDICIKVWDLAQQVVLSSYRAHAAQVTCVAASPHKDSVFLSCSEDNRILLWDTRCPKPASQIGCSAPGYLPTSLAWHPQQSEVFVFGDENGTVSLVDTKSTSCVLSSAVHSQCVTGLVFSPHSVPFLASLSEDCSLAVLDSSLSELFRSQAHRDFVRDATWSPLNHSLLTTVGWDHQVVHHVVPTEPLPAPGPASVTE

On to `O=C(NC[C@H](O)CN1CCc2c(ccc(OCc3cnco3)c2Cl)C1)c1cc(NC2CCC2)nc(N2CCN(C(=O)C3CC3)CC2)c1` [Compound 571, (S)—N-(3-(5-chloro-6-(oxazol-5-ylmethoxy)-3N-dihydroisoquinolin-2(1H)-yl)-2-hydroxypropyl)-2-(cyclobutylamino)-6-(4-(cyclopropanecarbonyl)piperazin-1-yl)isonicotinamide], for which the IC50 was 50 to 500 nM in experiment [1]; 500 to 5000 nM in experiment [2]; 50 to 500 nM in experiment [3]; at least 10000 nM in experiment [4]; below 1000 nM in experiment [5]. Besides, the “SAM/MTA Ratio” value in experiment [3] is “A (a Ki ratio greater than or equal to 10 fold between the Ki in the presence of SAM and the Ki in the presence of MTA)”. Further, the “MTAP Intact/Deleted Ratio” value in experiment [5] is “A* (an IC50 ratio greater than or equal to 10 fold between the IC50 in the HAP1 MTAP-intact cell line and the HAP1 MTAP-deleted cell line)”.

As for `CO[C@H]1CC[C@H](Nc2cc(C(=O)NC[C@H](O)CN3CCc4c(ccc(OCc5cnco5)c4C)C3)ncn2)CC1` [Compound 572, N-[(2S)-2-hydroxy-3-{5-methyl-6-[(1,3-oxazol-5-yl)methoxy]-1,2,3,4-tetrahydroisoquinolin-2-yl}propyl]-6-{[(1r,4r)-4-methoxycyclohexyl]amino}pyrimidine-4-carboxamide], the concentration for half-maximal inhibition (IC50) in experiment [1] is 500 to 5000 nM; in experiment [2] it was at least 5000 nM; in experiment [3], 50 to 500 nM; in experiment [4], at least 10000 nM; in experiment [5] it was at least 10000 nM. Besides, in experiment [3], the “SAM/MTA Ratio” value was “A (a Ki ratio greater than or equal to 10 fold between the Ki in the presence of SAM and the Ki in the presence of MTA)”. The “MTAP Intact/Deleted Ratio” value in experiment [5] is “C* (an IC50 ratio of less than 3 fold between the IC50 in the HAP1 MTAP-intact cell line and the HAP1 MTAP-deleted cell line)”.

Take `CC(=O)N1CC(Nc2cc(C(=O)NC[C@H](O)CN3CCc4c(ccc(OCc5ocnc5C)c4C)C3)nc(N3CCOCC3)n2)C1` [Compound 574, 6-[(1-acetylazetidin-3-yl)amino]-N-[(2S)-2-hydroxy-3-{5-methyl-6-[(4-methyl-1,3-oxazol-5-yl)methoxy]-1,2,3,4-tetrahydroisoquinolin-2-yl}propyl]-2-(morpholin-4-yl)pyrimidine-4-carboxamide]: the half-inhibitory concentration (IC50) in experiment [1] is 50 to 500 nM; in experiment [2], at least 5000 nM; in experiment [3], 50 to 500 nM; in experiment [4], at least 10000 nM; in experiment [5], 1000 to 10000 nM. The “SAM/MTA Ratio” value in experiment [3] is “A (a Ki ratio greater than or equal to 10 fold between the Ki in the presence of SAM and the Ki in the presence of MTA)”. Besides, the “MTAP Intact/Deleted Ratio” value in experiment [5] was “C* (an IC50 ratio of less than 3 fold between the IC50 in the HAP1 MTAP-intact cell line and the HAP1 MTAP-deleted cell line)”.

For the compound `CC(=O)N1CC(Nc2cc(C(=O)NC[C@H](O)CN3CCc4c(ccc(OCc5ocnc5C)c4C)C3)nc(C(C)C)n2)C1` [Compound 575, (S)-6-((1-acetylazetidin-3-yl)amino)-N-(2-hydroxy-3-(5-methyl-6-((4-methyloxazol-5-yl)methoxy)-3A-dihydroisoquinolin-2(1H)-yl)propyl)-2-isopropylpyrimidine-4-carboxamide], the IC50 in experiment [1] is 50 to 500 nM; in experiment [2] it was at least 5000 nM; in experiment [3] it was 50 to 500 nM; in experiment [4], at least 10000 nM; in experiment [5], 1000 to 10000 nM. Also, the “SAM/MTA Ratio” value in experiment [3] was “A (a Ki ratio greater than or equal to 10 fold between the Ki in the presence of SAM and the Ki in the presence of MTA)”. In addition, in experiment [5], the “MTAP Intact/Deleted Ratio” value is “B* (an IC50 ratio greater than or equal to 3 fold but lower than 10 fold between the IC50 in the HAP1 MTAP-intact cell line and the HAP1 MTAP-deleted cell line)”.

For the compound `CC(=O)N1CCC(Nc2cc(C(=O)NC[C@H](O)CN3CCc4cc(OCc5ocnc5C)c(F)cc4C3)ncn2)CC1` [Compound 576, 6-[(1-acetyl-4-piperidyl)amino]-N-[(2S)-3-[7-fluoro-6-[(4-methyloxazol-5-yl)methoxy]-3N-dihydro-1H-isoquinolin-2-yl]-2-hydroxy-propyl]pyrimidine-4-carboxamide], the IC50 lay within 50 to 500 nM in experiment [1]; 500 to 5000 nM in experiment [2]; 50 to 500 nM in experiment [3]; 1000 to 10000 nM in experiment [4]; 1000 to 10000 nM in experiment [5]. In addition, the “SAM/MTA Ratio” value in experiment [3] was “A (a Ki ratio greater than or equal to 10 fold between the Ki in the presence of SAM and the Ki in the presence of MTA)”. Also, in experiment [5], the “MTAP Intact/Deleted Ratio” value was “B* (an IC50 ratio greater than or equal to 3 fold but lower than 10 fold between the IC50 in the HAP1 MTAP-intact cell line and the HAP1 MTAP-deleted cell line)”.

With `COc1ccc(C(=O)N2CCc3cc(C(=O)NC[C@H](O)CN4CCc5cc(OCc6ocnc6C)c(F)cc5C4)ccc3C2)cc1` [Compound 577, N-[(2S)-3-[7-fluoro-6-[(4-methyloxazol-5-yl)methoxy]-3N-dihydro-1H-isoquinolin-2-yl]-2-hydroxy-propyl]-2-(4-methoxybenzoyl)-3N-dihydro-1H-isoquinoline-6-carboxamide], the IC50 in experiment [1] was in the range of 50 to 500 nM; in experiment [2], 500 to 5000 nM; in experiment [3], 50 to 500 nM; in experiment [4], 1000 to 10000 nM; in experiment [5], 1000 to 10000 nM. In experiment [3], the “SAM/MTA Ratio” value is “A (a Ki ratio greater than or equal to 10 fold between the Ki in the presence of SAM and the Ki in the presence of MTA)”. The “MTAP Intact/Deleted Ratio” value in experiment [5] was “B* (an IC50 ratio greater than or equal to 3 fold but lower than 10 fold between the IC50 in the HAP1 MTAP-intact cell line and the HAP1 MTAP-deleted cell line)”.

Consider `Cc1ncoc1COc1cc2c(cc1F)CN(C[C@@H](O)CNC(=O)c1ccc3c(c1)CCN(C(=O)c1ccc(Br)cc1)C3)CC2` [Compound 578, 2-(4-bromobenzoyl)-N-[(2S)-3-[7-fluoro-6-[(4-methyloxazol-5-yl)methoxy]-3,4-dihydro-1H-isoquinolin-2-yl]-2-hydroxy-propyl]-3,4-dihydro-1H-isoquinoline-6-carboxamide], for which the concentration for half-maximal inhibition (IC50) in experiment [1] lay within 50 to 500 nM; in experiment [2] it was 500 to 5000 nM; in experiment [3] it was 50 to 500 nM; in experiment [4] it was 1000 to 10000 nM; in experiment [5], 1000 to 10000 nM. Further, the “SAM/MTA Ratio” value in experiment [3] was “A (a Ki ratio greater than or equal to 10 fold between the Ki in the presence of SAM and the Ki in the presence of MTA)”. Further, in experiment [5], the “MTAP Intact/Deleted Ratio” value is “B* (an IC50 ratio greater than or equal to 3 fold but lower than 10 fold between the IC50 in the HAP1 MTAP-intact cell line and the HAP1 MTAP-deleted cell line)”.

Turning to `CC(=O)N1CC(Nc2cc(C(=O)NC[C@H](O)CN3CCc4cc(OCc5ocnc5C)c(F)cc4C3)nc(N3CCCCC3)n2)C1` [Compound 579, 6-[(1-acetylazetidin-3-yl)amino]-N-[(2S)-3-[7-fluoro-6-[(4-methyloxazol-5-yl)methoxy]-3,4-dihydro-1H-isoquinolin-2-yl]-2-hydroxy-propyl]-2-(1-piperidyl)pyrimidine-4-carboxamide], the IC50 in experiment [1] was 50 to 500 nM; in experiment [2], 50 to 500 nM; in experiment [3] it was 50 to 500 nM; in experiment [4], 1000 to 10000 nM; in experiment [5], below 1000 nM. Also, the “SAM/MTA Ratio” value in experiment [3] was “A (a Ki ratio greater than or equal to 10 fold between the Ki in the presence of SAM and the Ki in the presence of MTA)”. The “MTAP Intact/Deleted Ratio” value in experiment [5] was “A* (an IC50 ratio greater than or equal to 10 fold between the IC50 in the HAP1 MTAP-intact cell line and the HAP1 MTAP-deleted cell line)”.

As for `Cc1ncoc1COc1ccc2c(c1)CCN(C[C@@H](O)CNC(=O)c1ccnc(Nc3cccnc3)c1)C2` [Compound 581, (S)—N-(2-hydroxy-3-(6-((4-methyloxazol-5-yl)methoxy)-3,4-dihydroisoquinolin-2(1H)-yl)propyl)-2-(pyridin-3-ylamino)isonicotinamide], the IC50 in experiment [1] was 50 to 500 nM; in experiment [2], at least 5000 nM; in experiment [3] it was 50 to 500 nM; in experiment [4], 1000 to 10000 nM; in experiment [5], 1000 to 10000 nM. Further, the “SAM/MTA Ratio” value in experiment [3] was “A (a Ki ratio greater than or equal to 10 fold between the Ki in the presence of SAM and the Ki in the presence of MTA)”. In addition, the “MTAP Intact/Deleted Ratio” value in experiment [5] is “B* (an IC50 ratio greater than or equal to 3 fold but lower than 10 fold between the IC50 in the HAP1 MTAP-intact cell line and the HAP1 MTAP-deleted cell line)”.

Consider `COCCN(C)c1cc(C(=O)NC[C@H](O)CN2CCc3cc(OCc4ocnc4C)ccc3C2)cc(NC2CCN(C(C)=O)CC2)n1` [Compound 582], for which the IC50 in experiment [1] is 50 to 500 nM; in experiment [2], 500 to 5000 nM; in experiment [3], 50 to 500 nM; in experiment [4], 1000 to 10000 nM; in experiment [5], below 1000 nM. In addition, the “SAM/MTA Ratio” value in experiment [3] is “A (a Ki ratio greater than or equal to 10 fold between the Ki in the presence of SAM and the Ki in the presence of MTA)”. In experiment [5], the “MTAP Intact/Deleted Ratio” value is “A* (an IC50 ratio greater than or equal to 10 fold between the IC50 in the HAP1 MTAP-intact cell line and the HAP1 MTAP-deleted cell line)”.

With `CC(=O)N1CC(Nc2cc(C(=O)NC[C@H](O)CN3CCc4cc(OCc5cnco5)ccc4C3)nc(N3CCOCC3)n2)C1` [Compound 583], the half-inhibitory concentration (IC50) in experiment [1] was 50 to 500 nM; in experiment [2] it was 500 to 5000 nM; in experiment [3], 50 to 500 nM; in experiment [4], at least 10000 nM; in experiment [5], 1000 to 10000 nM. In experiment [3], the “SAM/MTA Ratio” value was “A (a Ki ratio greater than or equal to 10 fold between the Ki in the presence of SAM and the Ki in the presence of MTA)”. The “MTAP Intact/Deleted Ratio” value in experiment [5] is “C* (an IC50 ratio of less than 3 fold between the IC50 in the HAP1 MTAP-intact cell line and the HAP1 MTAP-deleted cell line)”.
